pKi: −log10 of the molar value. Read-outs that look alike come from different tables or passages of the source.
Experiments:
[1] = biological target: human recombinant dopamine D3 receptor (Homo sapiens (Human), UniProt P35462); test: Test of binding inhibition for dopamine D3 receptor ([3H]-Methylspiperone SPA); conditions: Jump-In HEK cell membranes, 2 nM [3H]-Methylspiperone, 120 min at 25° C.; read-out: hD3_Ki
Description: (§1) (Experimental Conditions)
Cell membranes: Jump-In HEK cell membranes expressing human recombinant dopamine D3 receptor (4 μg/well)
(§2) Non-specific ligand: (final concentration) 10 μM Butaclamol [(+)-Butaclamol Hydrochloride, D033, Sigma]
(§3) SPA beads solution: SPA beads [WGA PVT SPA Scintillation Beads, RPNQ0001 (500 mg), RPNQ0060 (2 g), PerkinElmer] (0.2 mg/well)
(§4) Incubation time and temperature: 120 min at 25° C.
(§5) Butaclamol or the compounds of the present invention were weighed and DMSO was added to make a 10 mM solution. This solution was diluted to each concentration.
[^3H]-Methylspiperone was weighed and the buffer solution was added to make a 6 nM solution.
(§6) SPA beads were weighed and stirred in water to make a 50 mg/mL solution. Using this solution, a mixture with the cell membranes was prepared.
(§7) Jump-In HEK Cell membranes (final reaction amount: 4 μg protein/well), the SPA beads solution (final reaction amount: 0.2 mg/well) and the buffer solution were mixed and the mixed solution was left still for 1 hour or more at 4° C. Then, 50 μL of the mixture was added to each well of the plate. In addition, 25 μL of 6 nM [^3H]-Methylspiperone (final concentration: 2 nM) was added to each well. […] Non-specific binding was calculated based on the radioactivity of [^3H]-Methylspiperone in the presence of 10 μM non-labeled Butaclamol. The total binding was calculated using the radioactivity of [H]-Methylspiperone in the absence of the compounds of the present invention (vehicle). The Ki values were calculated from dose-response curves.
(§8) Binding activities of the compounds of the present invention were calculated from the following Binding Inhibition Rate (%): Inhibition Rate (%)=[1−(c−a)/(b−a)]×100 • a: Average cpm of non-specific binding • b: Average cpm of total binding • c: Cpm in the presence of each test compound

[2] = biological target: human recombinant dopamine D2 receptor (Homo sapiens (Human), UniProt P14416); test: Test of binding inhibition for dopamine D2 receptor ([3H]-Methylspiperone SPA); conditions: Jump-In HEK cell membranes, read-out: hD2_Ki
human recombinant dopamine D2 receptor, sequence (P14416 whole entry): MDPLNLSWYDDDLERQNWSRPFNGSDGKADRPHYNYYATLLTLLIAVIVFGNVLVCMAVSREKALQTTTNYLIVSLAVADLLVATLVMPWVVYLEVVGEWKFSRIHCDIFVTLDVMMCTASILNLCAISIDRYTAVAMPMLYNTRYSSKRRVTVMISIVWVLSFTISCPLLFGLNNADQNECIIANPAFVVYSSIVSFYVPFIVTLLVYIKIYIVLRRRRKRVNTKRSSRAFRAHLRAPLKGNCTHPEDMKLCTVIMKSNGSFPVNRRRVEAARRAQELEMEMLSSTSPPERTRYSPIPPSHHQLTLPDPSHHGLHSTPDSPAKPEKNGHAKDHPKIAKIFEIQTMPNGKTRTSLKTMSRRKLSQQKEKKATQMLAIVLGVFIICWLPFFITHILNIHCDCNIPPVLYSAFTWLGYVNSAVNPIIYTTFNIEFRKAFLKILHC
Description: as §1
Cell membranes: Jump-In HEK cell membranes expressing human recombinant dopamine D2 receptor (2 μg/well)
as §2, §3, §4, §5, §6
as §7, with “amount: 2” for “amount: 4”, “were mixed,” for “were mixed”, “plate.” for “plate. In addition, 25 μL of 6 nM [^3H]-Methylspiperone (final concentration: 2 nM) was added to each well.”, “of [^3H]-Methylspiperone” for “of [H]-Methylspiperone”, “invention (Vehicle).” for “invention (vehicle).”
as §8

[3] = 1.2 nM [3H]-Methylspiperone, 120 min at 25° C.

human recombinant dopamine D3 receptor, sequence (P35462 whole entry): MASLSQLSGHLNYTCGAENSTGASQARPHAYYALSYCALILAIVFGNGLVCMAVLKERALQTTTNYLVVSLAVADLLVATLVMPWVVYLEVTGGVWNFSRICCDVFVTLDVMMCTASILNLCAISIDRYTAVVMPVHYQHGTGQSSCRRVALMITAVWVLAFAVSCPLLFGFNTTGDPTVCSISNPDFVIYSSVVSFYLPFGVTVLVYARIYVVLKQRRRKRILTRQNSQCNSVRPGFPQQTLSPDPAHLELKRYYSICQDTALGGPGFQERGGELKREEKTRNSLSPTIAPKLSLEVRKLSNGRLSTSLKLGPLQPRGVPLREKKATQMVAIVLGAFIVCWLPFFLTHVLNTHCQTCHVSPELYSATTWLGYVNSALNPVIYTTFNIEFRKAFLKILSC

SMILES | pKi [1] | pKi [2, 3] | pKi ([2]; [3H]-Methylspiperone 1.2 nM)
CC(Oc1ccc2c(n1)CCN(CC[C@H]1CC[C@H](NC(=O)c3cccc4nn(C)cc34)CC1)CC2)C(F)F (single isomer, unassigned) [Example I-123] | 10.47 | 6.70 | –
Cc1nc(CC(=O)N[C@H]2CC[C@](F)(CCN3CCc4ccc(CCC(F)(F)F)nc4CC3)CC2)nn1C [III-2] | 9.80 | 5.92 | –
C[C@@H](Oc1nc2c(s1)CCN(CC[C@H]1CC[C@H](NC(=O)COc3cnn(C)c3)CC1)CC2)C(F)(F)F [Example I-120] | 9.08 | 6.08 | –
Cn1ncc(CC(=O)N[C@H]2CC[C@](F)(CCN3CCc4nc(OCC(F)F)sc4CC3)CC2)c1F [I′-29] | 8.51 | – | < 5.66
Cc1nc(CC(=O)N[C@H]2CC[C@H](CCN3CCc4ccc(CCC(F)(F)F)nc4CC3)CC2)n(C)n1 [I′-15] | 8.85 | – | 5.77
Cn1ncc(CC(=O)N[C@H]2CC[C@H](CCN3CCc4ccc(OCC(F)F)nc4CC3)CC2)n1 [I′-44] | 9.96 | – | 5.70
CN1Cc2c(C(=O)NC34CCC(CCN5CCc6nc(OCC(F)(F)F)sc6CC5)(CC3)CC4)cccc2C1=O [II-2] | 10.10 | – | < 5.66
Cc1cc(OCC(=O)N[C@H]2CC[C@](F)(CCN3CCc4ccc(OCC(C)(F)F)nc4CC3)CC2)no1 [Example I-079] | 10.15 | < 5.74 | –
C[C@H](Oc1nc2c(s1)CCN(CC[C@H]1CC[C@H](NC(=O)Cc3cnn(C)n3)CC1)CC2)C(F)(F)F [III-6] | 9.82 | 5.80 | –
Cn1cc(CC(=O)N[C@H]2CC[C@H](CCN3CCc4nc(OCC(F)(F)F)sc4CC3)CC2)c(F)n1 [I′-24] | 9.77 | – | 6.20
Cn1ncc(CC(=O)N[C@H]2CC[C@H](CCN3CCc4ccc(CCC(F)(F)F)nc4CC3)CC2)c1F [I′-19] | 9.44 | – | 5.96
Cc1nnc(CC(=O)N[C@H]2CC[C@](F)(CCN3CCc4nc(OCCC(F)(F)F)sc4CC3)CC2)s1 [Example I-115] | 9.20 | < 5.66 | –
Cn1c(C(=O)N[C@H]2CC[C@H](CCN3CCc4nc(OCC(F)(F)F)sc4CC3)CC2)ccc(F)c1=O [Example I-122] | 9.62 | 6.44 | –
Cc1cc(CC(=O)N[C@H]2CC[C@](F)(CCN3CCc4ccc(CCC(F)(F)F)nc4CC3)CC2)on1 [III-3] | 10.54 | < 5.64 | –
Cc1nc(CC(=O)N[C@H]2CC[C@](F)(CCN3CCc4ccc(O[C@H](C)C(F)(F)F)nc4CC3)CC2)nn1C [Example I-180] | 9.07 | 6.07 | –
Cc1ncc(OCC(=O)N[C@H]2CC[C@H](CCN3CCc4ccc(OCC(F)F)nc4CC3)CC2)cn1 [Example I-097] | 9.96 | 6.05 | –
Cc1ncccc1C(=O)N[C@H]1CC[C@H](CCN2CCc3ccc(CCC(F)(F)F)nc3CC2)CC1 [I′-1] | 9.37 | – | 6.04
Cc1ncc(/C=C/C(=O)N[C@H]2CC[C@](F)(CCN3CCc4ccc(OCC(C)(F)F)nc4CC3)CC2)cn1 [I′-47] | 10.09 | – | 7.39
Cc1cnc(OCC(=O)N[C@H]2CC[C@](F)(CCN3CCc4nc(OCCC(F)(F)F)sc4CC3)CC2)cn1 [Example I-118] | 9.13 | < 5.66 | –
O=C(N[C@H]1CC[C@H](CCN2CCc3nc(OCC(F)F)sc3CC2)CC1)c1cccnc1C(F)F [Example I-161] | 9.49 | 6.03 | –
Cn1ncc(CC(=O)N[C@H]2CC[C@](F)(CCN3CCc4ccc(OCC(F)F)nc4CC3)CC2)c1F [I′-35] | 9.39 | – | 5.74
Cc1ncc(CC(=O)N[C@H]2CC[C@H](CCN3CCc4cc(F)c(OCC(F)F)nc4CC3)CC2)o1 [I′-57] | 9.28 | – | < 5.66
Cn1c(C(=O)N[C@H]2CC[C@H](CCN3CCc4ccc(CCC(F)(F)F)nc4CC3)CC2)cccc1=O [I′-5] | 9.66 | – | 6.21
Cc1ncc(CC(=O)N[C@H]2CC[C@](F)(CCN3CCc4nc(OCC(F)(F)F)sc4CC3)CC2)cn1 [I′-51] | 9.32 | – | 6.05
Cn1cc2c(C(=O)N[C@H]3CC[C@H](CCN4CCc5ccc(OC6CCC(F)(F)C6)nc5CC4)CC3)cccc2n1 (some centres unmarked) [Example I-057] | 9.74 | 6.11 | –

SMILES | pKi [1] | pKi [2, 3] | pKi ([2]; [3H]-Methylspiperone 1.2 nM)
CC(Oc1ccc2c(n1)CCN(CC[C@H]1CC[C@H](NC(=O)c3cccc4nn(C)cc34)CC1)CC2)C(F)F (single isomer, unassigned) [Example I-124] | 10.14 | 6.74 | –
Cn1ncc2ccc(C(=O)N[C@H]3CC[C@H](CCN4CCc5nc(OCC(C)(F)F)sc5CC4)OC3)cc21 [Example I-067] | 9.80 | 6.43 | –
CC(F)(F)COc1nc2c(s1)CCN(CC[C@H]1CC[C@H](NC(=O)c3cnn4ccccc34)CC1)CC2 [Example I-051] | 9.37 | 5.96 | –
Cn1c(C(=O)N[C@H]2CC[C@](F)(CCN3CCc4nc(OCC(F)(F)F)sc4CC3)CC2)cccc1=O [I′-49] | 9.23 | – | 6.54
Cc1cnc(CC(=O)N[C@H]2CC[C@](F)(CCN3CCc4nc(OCCC(F)(F)F)sc4CC3)CC2)o1 [Example I-117] | 9.26 | < 5.66 | –
CC(F)(F)COc1nc2c(s1)CCN(CC[C@]1(F)CC[C@@H](NC(=O)c3cccnc3C(F)F)CC1)CC2 [Example I-162] | 9.25 | 6.13 | –
Cc1cc(OCC(=O)N[C@H]2CC[C@H](CCN3CCc4nc(OCC(C)(F)F)sc4CC3)CC2)no1 [Example I-053] | 9.70 | 6.20 | –
Cn1ncc(CC(=O)N[C@H]2CC[C@](F)(CCN3CCc4nc(OCC(F)(F)C(F)F)sc4CC3)CC2)n1 [III-9] | 10.09 | 6.11 | –
Cn1ncc(CC(=O)N[C@H]2CC[C@H](CCN3CCc4nc(OCC(F)F)sc4CC3)CC2)c1F [I′-28] | 9.68 | – | 5.82
Cn1ncc(CC(=O)N[C@H]2CC[C@](F)(CCN3CCc4ccc(OC5CCC5)nc4CC3)CC2)n1 [Example I-106] | 9.27 | < 5.64 | –
O=C(N[C@H]1CC[C@H](CCN2CCc3nc(OC4CC(F)(F)C4)sc3CC2)CC1)c1cccnc1C(F)F [Example I-168] | 9.51 | 6.00 | –
Cc1ncc(/C=C/C(=O)N[C@H]2CC[C@](F)(CCN3CCc4nc(OCC(F)(F)F)sc4CC3)CC2)cn1 [I′-48] | 9.57 | – | < 5.66
Cc1nnc(CC(=O)N[C@H]2CC[C@H](CCN3CCc4nc(O[C@@H](C)C(F)(F)F)sc4CC3)CC2)o1 [III-4] | 9.80 | 6.11 | –
Cn1ncc(CC(=O)NC23CCC(CCN4CCc5nc(OCC(F)(F)F)sc5CC4)(CC2)CC3)n1 [II-4] | 9.80 | – | 5.85
Cc1nnc(CC(=O)N[C@H]2CC[C@H](CCN3CCc4ccc(OCC(F)F)nc4CC3)CC2)o1 [Example I-093] | 9.77 | 5.92 | –
CCn1c(C(=O)N[C@H]2CC[C@H](CCN3CCc4ccc(OCC(F)F)nc4CC3)CC2)cccc1=O [Example I-092] | 9.80 | 6.51 | –
Cc1cnc(CC(=O)N[C@H]2CC[C@H](CCN3CCc4ccc(OC5CCC5)nc4CC3)CC2)o1 [Example I-090] | 9.19 | < 5.62 | –
Cc1nc(CC(=O)N[C@H]2CC[C@H](CCN3CCc4ccc(O[C@H](C)C(F)(F)F)nc4CC3)CC2)nn1C [Example I-130] | 9.31 | 5.92 | –
Cc1nnc(CC(=O)N[C@H]2CC[C@H](CCN3CCc4ccc(CCC(F)(F)F)nc4CC3)CC2)s1 [I′-12] | 9.54 | – | 6.09
Cc1cc(OCC(=O)N[C@H]2CC[C@H](CCN3CCc4ccc(CCC(F)(F)F)nc4CC3)CC2)no1 [I′-8] | 10.15 | – | < 5.64
Cn1cc(OCC(=O)N[C@H]2CC[C@H](CCN3CCc4ccc(OCC(F)F)nc4CC3)CC2)cn1 [Example I-096] | 9.74 | 6.24 | –
Cn1ncc(CC(=O)N[C@H]2CC[C@](F)(CCN3CCc4ccc(OCC(F)(F)F)nc4CC3)CC2)n1 [I′-43] | 10.11 | – | 6.46
Cc1ncccc1C(=O)NC12CCC(CCN3CCc4ccc(OCC(F)F)nc4CC3)(CC1)CC2 [II-13] | 9.25 | – | 5.68
Cc1ncc(/C=C/C(=O)N[C@H]2CC[C@](F)(CCN3CCc4nc(OCC(F)F)sc4CC3)CC2)cn1 [Example I-061] | 9.19 | < 5.74 | –
